Data published in patent US8629242B2, “Methods of inhibiting calcineurin with ApoE analogs” (Cognosci, Inc., priority 2007, dated 2014).

Columns and labels:
calcineurin (PP2B) = target: T1, calcineurin (PP2B) (Homo sapiens, UniProt Q08209); test: Immunoprecipitation with biotin-COG 133 conjugate, blot probed for calcineurin; type: binding; details: human brain lysate or primary glial culture; biotin-COG 133 bead conjugate
T1 construct: from tissue; host or cells: human brain lysate
Procedure: FIG. 14. ApoE analogs bind directly to calcineurin and inhibit its activity. […] (B) Immunoprecipitation of human brain lysate with a biotin-COG 133 conjugate. Lane 1=markers; lane 2=clear bead; lane 3=biotin-COG 133 bead conjugate; and lane 4=10 μg lysate. (C) Immunoprecipitation of different glial cultures with a biotin-COG 133 conjugate. Lane 1=markers; lane 2=astrocyte; lane 3=microglia; and lane 4=oligodendrocyte precursor cells (OPC). Blots in B and C were probed for calcineurin (PP2B).
Calcineurin activity was measured in a cell-free in vitro assay in the presence of various concentrations of COG 133 (SEQ ID NO: 1), COG 112 (SEQ ID NO: 5), COG 68 (SEQ ID NO: 7), COG 125 (Ac-AS(Aib)LRKL(Aib)KR—COOH; SEQ ID NO: 8), or antennapedia (antp), the prefix peptide for COG 112. […] Using a BioMol Calcineurin Phosphatase Activity Kit (Cat. #AK-804), the assay was conducted according to manufacturer's instructions. […] This inhibition of calcineurin activity by ApoE analogs is mediated by a direct interaction of the ApoE analog with the phosphatase.

[1] = tested on: NFAT translocation in BV2 cells; test: LPS-induced NFAT translocation in BV2 cells; type: cell-based, murine; details: 2 μM, LPS 10 ng/mL, 15 min
Source text: FIG. 15. ApoE analog inhibits LPS-induced NFAT translocation. Murine microglial cell line, BV2 cells were stimulated with LPS in the presence or absence of COG 112. NFAT (green signal) and nuclear label (red signal). (A) Untreated cultures; (B) LPS-treated cultures; (C) LPS+COG 112-treated cultures; (D) NFAT translocation was quantified by the fluorescence intensity of green fluorescence in the nucleus defined by yellow area.
Calcineurin dephosphorylates the transcription factor NFAT, which leads to its activation and translocation to the nucleus. Activation of calcineurin and subsequent activation of NFAT is induced by inflammatory stimuli. To further examine the effect of ApoE analogs on calcineurin signaling, murine microglial cell line, BV2 cells were stimulated with LPS (10 ng/mL) in the absence and presence of COG 112 (2 μM). After incubation for 15 min at 37° C., the cells were washed and fixed with 4% formaldehyde. After staining with 1/100 anti-NFAT antibody coupled with Alexaflour and then counterstained with hoescht nuclear dye, NFAT translocation was quantified by the fluorescence intensity of Alexaflour in the nucleus.

sciatic nerve crush = test: Sciatic nerve crush model; type: in vivo, C57BL/6J male mice; details: 1 mg/kg i.p. daily
Procedure: FIG. 13. COG 112 attenuates axonal neurodegeneration and promotes functional recovery after sciatic nerve crush. C57BL mice were subjected to sciatic nerve crush on left hindlimb using a number 5 jeweler's forceps. The animals received lactated Ringer's buffer or COG 112 (1 mg/kg) by i.p. 2 hr after crush followed by daily dose for 14 days. (A) To assess functional deficits after nerve crush, footprints were recorded and the Sciatic Functional Index (SFI) was calculated. […] Treatment with COG 112 also robustly augmented the mRNA expression of peripheral myelin marker P0 (B) and axonal regeneration marker GAP43 (C) quantified by real-time PCR. **P<0.01; P<0.001. (D) On day 4 after injury, the sciatic nerves were dissected and stained with FD NeuroSilver kit to reveal degenerating axons manifested as dotted lines as depicted in the schematic above the micrographs.
We used a sciatic nerve crush model to investigate whether ApoE analogs can prevent functional loss and/or promote functional recovery after nerve injury. C57BL/6J male mice were anesthetized and the sciatic nerve on left hindlimb was crushed with Number 5 Jeweler's forceps at mid-thigh level for 30 seconds. The animals were then randomly assigned to receive either COG 112 (1 mg/kg, i.p.) or lactated Ringer's buffer two hours after crush followed by daily dose for 14 days. On day 4, two animals from each group were sacrificed and crushed sciatic nerves were dissected and silver stained using a FD NeuroSilver® staining kit to reveal degenerating axons.
On day 7 and 14, footprints for each animal were taken for quantitative assessment of hindlimb motor function. A Sciatic Functional Index (SFI), which takes into account the relationship between toes and feet of an animal's hindlimb, was calculated for each animal as previously described (Bain et al. (1989) Plast. Reconstr. Surg., Vol. 83(1):129-38). SFI values of zero and […] indicate normal and complete dysfunction, respectively.
In order to examine the effect of COG 112 on remyelination and regeneration of axons, segments of sciatic nerves spanning the crushed sites were dissected and collected on day 3, 7 and 14 for examination of P0, a marker of peripheral myelination, and growth associated protein 43 (GAP43), a marker of axonal regeneration, mRNA by real time PCR.

Compound	binding of calcineurin (PP2B) in immunoprecipitates (calcineurin (PP2B))	NFAT translocation to the nucleus [1]	expression of GAP43 mRNA (real time PCR) (sciatic nerve crush; 2 weeks)	expression of P0 mRNA (real time PCR) (sciatic nerve crush; 2 weeks)	functional recovery (Sciatic Functional Index) (sciatic nerve crush; 2 weeks, vs vehicle, P<0.001)	axonal degeneration (silver staining) (sciatic nerve crush; day 4)
CC(=O)N[C@@H](CC(C)C)C(=O)N[C@@H](CCCNC(=N)N)C(=O)N[C@H](C(=O)N[C@@H](CCCNC(=N)N)C(=O)N[C@@H](CC(C)C)C(=O)N[C@@H](C)C(=O)N[C@@H](CO)C(=O)N[C@@H](Cc1c[nH]cn1)C(=O)N[C@@H](CC(C)C)C(=O)N[C@@H](CCCNC(=N)N)C(=O)N[C@@H](CCCCN)C(=O)N[C@@H](CC(C)C)C(=O)N[C@@H](CCCNC(=N)N)C(=O)N[C@@H](CCCCN)C(=O)N[C@@H](CCCNC(=N)N)C(=O)N[C@@H](CC(C)C)C(=O)N[C@@H](CC(C)C)C(N)=O)C(C)C [COG 133]	bound					
Ac-RQIKIWFQNRRMKWKKCLRVRLASHLRKLRKRLL-NH2 [COG 112]		prevented NFAT translocation	robustly increased	robustly increased	significantly improved functional recovery	significantly reduced axonal degeneration
